Consider 18 molecules from patent US20250304594A1, “METHYL (R)-2-(FLUOROMETHYL)-5-OXO-4-PHENYL-4,5,6,7-TETRAHYDRO-1H-CYCLOPENTA[B]PYRIDINE-3-CARBOXYLATE AND METHYL (R)-2-(FLUOROMETHYL)-5-OXO-4-PHENYL-1,4,5,7-TETRAHYDROFURO[3,4-B]PYRIDINE-3-CARBOXYLATE AS Cav1,2 ACTIVATORS” (Novartis AG, priority 2020, published 2025).

The EC50 is the concentration that produces a half-maximal response. The low end stands for an effect from little substance, the high end for a need for much substance.

This experiment concerns the target T1, human CaV1.2 (Homo sapiens, UniProt Q13936).
T1 construct: expressed in transfected cells; host or cells: Flp-In 293 T-Rex (HEK293), monoclonal CaV1.2-HEK293(AUX) clone 2-19B; doxycycline-induced auxiliary subunits
The experiment is described as follows: Sophion QPatch dose-response assay, whole-cell voltage clamp of barium currents in CaV1.2-HEK293(AUX) cells. The experiment is classed as cell-based. As to conditions: Table 9, n = 1 unless * n = 2; for EC50: 6-point dose response, 10 determinations per concentration; for Qpatch Emax: maximal fold change of peak inward current. An excerpt:
The monoclonal CaV1.2-HEK293(AUX) cell line constitutively expresses human CaV1.2 alpha1C (α1C) subunit (CACNA1C) and has doxycycline-inducible expression of the alpha2delta (α2Δ2) auxiliary subunit (CACNA2D2) and beta2 (02) auxiliary subunit (CACNB2). To generate the cell line, expression vectors pcDNA5.0/FRT-TO-CACNA2D2-FCS-P2A-CACNB2 and pCMV6-entry-CACNA1C were established via gene synthesis and cloning. Here, pcDNA5.0/FRT-TO plasmid is from Invitrogen, pCMV6-entry is from Origene, FCS stands for Furin Cleavage Site, P2A is a peptide self-cleavage sequence derived from porcine teschovirus-1, and FRT is the Flippase recognition target site. Next, parental line Flp-In™ 293 T-Rex (Invitrogen) was transfected with pcDNA5.0/FRT-TO-CACNA2D2-FCS-P2A-CACNB2 and Flippase vector pOG44 (Invitrogen) to establish targeted integration of the CACNA2D2-FCS-P2A-CACNB2 expression cassette into the pre-engineered FRT site in Flp-In™ 293 T-Rex. This intermediate cell line was then transfected with pCMV6-entry-CACNA1C to establish stable CACNA1C expression. Clonal isolation was achieved under Neomycin selection.
Electrophysiological Characterization of CaV1.2 Activators Using CaV1.2-HEK293(AUX) Cell Line and QPatch
24 hours prior an electrophysiology experiment, doxycycline (1 μg/ml) was added to the growth medium (Table 6), and 25 μM of verapamil was co-applied to prevent calcium influx triggered cell death. Cell confluency should reach 70%-80% right before the experiment. To harvest cells (from a T175 cm^2 flask as an example), growth media were removed completely, and the cells were rinsed with 10 mL of D-PBS. D-PBS was aspirated, and 10 mL of Detachin (Genlantis) was added and the plate was placed in a 37° C. incubator for 10 minutes. Detached cells were placed into a 15 mL conical tube and spun at 1000 rpm for 2 minutes. Supernatant was removed, and cells were re-suspended in QPatch complete media (Table 7) to desired cell density of 1.5-3 million cells per QPatch run. Each experimental run uses 1.5 mL of cells.
The cells suspension was taken to the Sophion QPatch platform that uses whole-cell voltage clamp to measure barium currents conducted through CaV1.2 on single-hole QPlates. Extracellular and intracellular patch clamp solutions are described in Tables 7 and 8, respectively. A dose-response assay protocol was used to determine the maximal fold change of peak inward current (Emax) and potency (EC50) of each compound. The protocol had eight liquid periods. The first liquid period was to stabilize current amplitude, which was monitored using repetitive 200-ms voltage pulses stepping from −80 mV to 0 mV. The second liquid period was to determine baseline current amplitude in the presence of vehicle control, using a single 20-ms voltage pulse stepping from −80 mV to 0 mV. The third through eighth liquid periods were used to ascertain a 6-dose response to compound treatments, also using single 20-ms voltage pulses stepping from −80 mV to 0 mV. The EC50 was generated using the following equation Iconcentration=Ibase+(Ifull−Ibase)*c^n/(XC50^n+c^n), where c is the concentration and n is the Hill coefficient constant. Ifull is the maximal current achievable, and Ibase is 0. A channel biophysics assay protocol was used to determine channel gating properties including current-voltage relationship (IV curves), half-way channel activation voltage (V1/2), rate of channel inactivation (tau), and amplitude of tail current. Among these, V1/2 was derived from fitting equation G(V)=Gvmin+(Gvmax−Gvmin)/(1+exp(−(V−V½)/Vslope)), where G stands for conductance, Gvmin equals 0, Gvmax is the maximal conductance, and Vslope is a slope factor. G(V) was pre-calculated from equation G(V)=I(V)/(V−0.06), for each experimentally applied depolarization potential (V) and the corresponding current amplitude (I(V)), and 0.06 in the equation was the experimentally determined reversal potential in volts. The protocol had four liquid periods.
For orientation: In patch-clamp work, channel activity is measured electrically.

The structures appear in SMILES notation.

T1 sequence (Q13936 1-2138 isoform Q13936-23): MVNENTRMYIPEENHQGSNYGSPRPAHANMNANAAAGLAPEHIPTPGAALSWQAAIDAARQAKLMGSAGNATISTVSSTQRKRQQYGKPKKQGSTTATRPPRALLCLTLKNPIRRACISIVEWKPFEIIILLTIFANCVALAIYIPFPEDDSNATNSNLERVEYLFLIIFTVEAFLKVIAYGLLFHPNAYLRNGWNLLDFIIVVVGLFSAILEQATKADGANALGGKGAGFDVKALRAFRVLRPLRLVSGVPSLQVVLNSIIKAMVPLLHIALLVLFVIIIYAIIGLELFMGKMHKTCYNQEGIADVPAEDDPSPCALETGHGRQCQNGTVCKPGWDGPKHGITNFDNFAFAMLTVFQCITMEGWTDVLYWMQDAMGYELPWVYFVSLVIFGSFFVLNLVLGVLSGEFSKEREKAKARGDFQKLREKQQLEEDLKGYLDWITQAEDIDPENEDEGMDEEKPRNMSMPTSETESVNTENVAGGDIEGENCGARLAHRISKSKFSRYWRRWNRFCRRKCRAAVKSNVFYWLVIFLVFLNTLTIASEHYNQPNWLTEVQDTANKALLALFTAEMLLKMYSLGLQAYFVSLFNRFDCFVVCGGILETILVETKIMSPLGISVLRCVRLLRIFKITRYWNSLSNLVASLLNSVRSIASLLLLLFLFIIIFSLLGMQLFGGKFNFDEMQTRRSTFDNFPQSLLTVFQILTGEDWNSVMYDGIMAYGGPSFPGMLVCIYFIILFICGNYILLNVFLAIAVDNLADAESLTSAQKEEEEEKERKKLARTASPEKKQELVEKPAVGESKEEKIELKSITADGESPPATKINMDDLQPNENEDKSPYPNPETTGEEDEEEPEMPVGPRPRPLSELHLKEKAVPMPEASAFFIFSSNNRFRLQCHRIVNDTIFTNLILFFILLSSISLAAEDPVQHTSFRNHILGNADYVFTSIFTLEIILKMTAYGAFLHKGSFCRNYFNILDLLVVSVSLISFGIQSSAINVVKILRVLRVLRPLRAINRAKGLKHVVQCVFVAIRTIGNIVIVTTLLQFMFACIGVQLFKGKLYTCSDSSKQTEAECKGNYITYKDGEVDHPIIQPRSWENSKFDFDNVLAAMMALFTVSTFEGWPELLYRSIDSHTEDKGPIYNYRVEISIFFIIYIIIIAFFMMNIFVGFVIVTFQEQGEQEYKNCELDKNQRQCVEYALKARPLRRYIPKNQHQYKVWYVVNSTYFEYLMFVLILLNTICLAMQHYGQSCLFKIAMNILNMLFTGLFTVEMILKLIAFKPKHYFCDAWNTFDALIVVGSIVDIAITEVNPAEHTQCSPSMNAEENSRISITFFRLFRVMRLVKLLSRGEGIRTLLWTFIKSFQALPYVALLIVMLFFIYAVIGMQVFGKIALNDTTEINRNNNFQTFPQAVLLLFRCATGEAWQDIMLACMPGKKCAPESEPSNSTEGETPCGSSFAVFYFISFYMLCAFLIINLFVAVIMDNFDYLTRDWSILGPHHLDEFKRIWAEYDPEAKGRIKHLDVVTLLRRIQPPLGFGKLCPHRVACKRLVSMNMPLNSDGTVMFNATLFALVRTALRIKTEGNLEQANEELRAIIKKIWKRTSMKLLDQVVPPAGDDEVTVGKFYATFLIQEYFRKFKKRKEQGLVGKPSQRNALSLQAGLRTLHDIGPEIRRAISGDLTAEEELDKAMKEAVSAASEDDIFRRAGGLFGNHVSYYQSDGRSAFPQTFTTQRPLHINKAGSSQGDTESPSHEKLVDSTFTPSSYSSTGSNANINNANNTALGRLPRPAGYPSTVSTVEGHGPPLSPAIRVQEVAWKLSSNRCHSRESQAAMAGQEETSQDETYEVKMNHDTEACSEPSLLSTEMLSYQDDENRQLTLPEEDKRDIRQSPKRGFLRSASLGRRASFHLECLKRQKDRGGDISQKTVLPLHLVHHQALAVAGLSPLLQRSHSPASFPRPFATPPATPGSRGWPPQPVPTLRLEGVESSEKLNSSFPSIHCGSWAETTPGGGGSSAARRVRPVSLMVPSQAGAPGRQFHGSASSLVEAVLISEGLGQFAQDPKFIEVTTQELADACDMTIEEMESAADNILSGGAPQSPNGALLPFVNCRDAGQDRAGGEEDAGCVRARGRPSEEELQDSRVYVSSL
T1 sequence (Q9NY47 19-1001 partner limits assumed): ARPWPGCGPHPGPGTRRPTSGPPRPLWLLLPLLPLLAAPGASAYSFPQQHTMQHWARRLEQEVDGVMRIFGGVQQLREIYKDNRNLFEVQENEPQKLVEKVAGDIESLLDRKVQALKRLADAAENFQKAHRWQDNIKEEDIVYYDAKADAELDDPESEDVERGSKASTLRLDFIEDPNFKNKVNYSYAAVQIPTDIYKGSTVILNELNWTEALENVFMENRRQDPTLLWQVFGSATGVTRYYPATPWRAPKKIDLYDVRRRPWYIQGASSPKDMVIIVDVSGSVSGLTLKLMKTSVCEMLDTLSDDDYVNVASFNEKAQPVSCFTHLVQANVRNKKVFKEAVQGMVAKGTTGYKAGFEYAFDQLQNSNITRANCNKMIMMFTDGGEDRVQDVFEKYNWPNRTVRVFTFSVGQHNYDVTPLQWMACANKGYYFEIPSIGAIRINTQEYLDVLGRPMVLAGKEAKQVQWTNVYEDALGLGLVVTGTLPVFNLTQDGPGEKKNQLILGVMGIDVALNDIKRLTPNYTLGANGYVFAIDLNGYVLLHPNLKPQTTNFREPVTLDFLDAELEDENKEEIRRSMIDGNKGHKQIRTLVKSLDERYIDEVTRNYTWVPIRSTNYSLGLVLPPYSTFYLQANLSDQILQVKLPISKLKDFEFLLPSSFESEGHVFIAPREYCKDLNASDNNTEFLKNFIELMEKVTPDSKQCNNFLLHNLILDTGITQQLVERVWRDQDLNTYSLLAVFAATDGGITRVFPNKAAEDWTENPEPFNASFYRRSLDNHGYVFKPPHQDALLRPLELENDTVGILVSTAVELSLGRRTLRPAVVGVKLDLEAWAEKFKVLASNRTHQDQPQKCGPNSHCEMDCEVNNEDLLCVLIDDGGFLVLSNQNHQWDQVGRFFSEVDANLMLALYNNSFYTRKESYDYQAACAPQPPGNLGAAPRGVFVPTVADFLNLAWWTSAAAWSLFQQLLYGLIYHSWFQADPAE
T1 sequence (Q9NY47 1002-1150 partner limits assumed): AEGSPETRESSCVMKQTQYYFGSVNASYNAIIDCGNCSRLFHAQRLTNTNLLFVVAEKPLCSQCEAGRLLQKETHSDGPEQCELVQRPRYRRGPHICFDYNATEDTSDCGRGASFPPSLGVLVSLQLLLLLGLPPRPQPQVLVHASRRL
T1 sequence (Q08289 whole entry partner): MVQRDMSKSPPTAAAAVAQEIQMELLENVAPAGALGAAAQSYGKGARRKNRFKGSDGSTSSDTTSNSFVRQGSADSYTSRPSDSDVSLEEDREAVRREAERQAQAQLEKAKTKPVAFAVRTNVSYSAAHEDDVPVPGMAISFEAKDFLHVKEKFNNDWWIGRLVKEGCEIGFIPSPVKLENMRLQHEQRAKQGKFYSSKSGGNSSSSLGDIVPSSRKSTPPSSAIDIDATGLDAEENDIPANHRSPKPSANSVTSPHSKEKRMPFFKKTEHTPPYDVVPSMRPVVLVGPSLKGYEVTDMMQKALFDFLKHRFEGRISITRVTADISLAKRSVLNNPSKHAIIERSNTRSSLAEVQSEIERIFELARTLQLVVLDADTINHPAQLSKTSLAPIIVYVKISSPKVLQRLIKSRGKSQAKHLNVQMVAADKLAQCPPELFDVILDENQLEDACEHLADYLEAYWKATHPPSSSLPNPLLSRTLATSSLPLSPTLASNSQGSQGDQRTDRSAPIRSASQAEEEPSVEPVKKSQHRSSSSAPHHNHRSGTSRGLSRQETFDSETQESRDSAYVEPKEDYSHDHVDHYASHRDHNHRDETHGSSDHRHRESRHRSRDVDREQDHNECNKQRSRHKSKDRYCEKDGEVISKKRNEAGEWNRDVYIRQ

For the molecule `COC(=O)C1=C(CF)NC2=C(C(=O)OC2)[C@H]1c1cccc(F)c1[C@@H](C)F` (single isomer, unassigned) [Example 8], the EC50 worked out at 0.02 µM and the “Qpatch Emax” value was found to be 2.0.

In the case of `COC(=O)C1=C(CF)NC2=C(C(=O)OC2)[C@H]1c1ccccc1OC(F)F` (single isomer, unassigned) [Example 9], the EC50 was 0.1 µM and the “Qpatch Emax” value is 1.5.

As to `COC(=O)C1=C(CF)NC2=C(C(=O)OC2)[C@H]1c1cccc(F)c1C(F)(F)F` (single isomer, unassigned) [Example 17], the EC50 was 0.12 µM and the “Qpatch Emax” value turned out to be 1.2.

Turning to `COC(=O)C1=C(CF)NC2=C(C(=O)CC2)[C@H]1c1cccc(F)c1[C@@H](F)CF` (single isomer, unassigned) [Example 7, methyl (R)-4-(2-((R or S)-1,2-difluoroethyl)-3-fluorophenyl)-2-(fluoromethyl)-5-oxo-4,5,6,7-tetrahydro-1H-cyclopenta[b]pyridine-3-carboxylate], the EC50 is 0.03 µM and the “Qpatch Emax” value is reported as 1.8.

As for `COC(=O)C1=C(CF)NC2=C(C(=O)OC2)[C@H]1c1cccc(F)c1[C@H](F)CF` (single isomer, unassigned) [Example 6], the EC50 amounted to 0.017 µM and the “Qpatch Emax” value is listed as 1.4*.

On to `COC(=O)C1=C(CF)NC2=C(C(=O)OC2)[C@H]1c1cc(F)cc(F)c1[C@H](F)CF` (single isomer, unassigned) [Example 16, methyl (R)-4-(2-((R or S)-1,2-difluoroethyl)-3,5-difluorophenyl)-2-(fluoromethyl)-5-oxo-1,4,5,7-tetrahydrofuro[3,4-b]pyridine-3-carboxylate], for which the midpoint of the response, the EC50, lay at 0.01 µM and the “Qpatch Emax” value was found to be 1.5.

As to `COC(=O)C1=C(CF)NC2=C(C(=O)OC2)[C@H]1c1cccc(F)c1C1CC1` (single isomer, unassigned) [Example 2], the EC50 worked out at 0.012 µM and the “Qpatch Emax” value stood at 2.3.

Consider `COC(=O)C1=C(CF)NC2=C(C(=O)OC2)[C@H]1c1cc(F)cc(F)c1C(F)(F)F` (single isomer, unassigned) [Example 10], for which the EC50 was determined as 0.04 µM and the “Qpatch Emax” value is 1.8.

For `COC(=O)C1=C(CF)NC2=C(C(=O)OC2)[C@H]1c1cc(F)ccc1C(F)(F)F` (single isomer, unassigned) [Example 23], a half-maximal response (EC50) required 0.12 µM and the “Qpatch Emax” value is listed as 3.5.

As to `COC(=O)C1=C(CF)NC2=C(C(=O)CC2)[C@H]1c1cccc(F)c1C1CC1` (single isomer, unassigned) [Example 28], the concentration giving a half-maximal response (EC50) came to 0.06 µM and the “Qpatch Emax” value was 1.9.

For the molecule `COC(=O)C1=C(CF)NC2=C(C(=O)OC2)[C@H]1c1cccc(F)c1CC(F)F` (single isomer, unassigned) [Example 11], the EC50 stood at 0.07 µM and the “Qpatch Emax” value is given as 2.0.

For the molecule `COC(=O)C1=C(CF)NC2=C(C(=O)OC2)[C@H]1c1cccc(F)c1[C@H]1CC1(F)F` (single isomer, unassigned) [Example 1, methyl (R)-4-(2-((R or S)-2,2-difluorocyclopropyl)-3-fluorophenyl)-2-(fluoromethyl)-5-oxo-1,4,5,7-tetrahydrofuro[3,4-b]pyridine-3-carboxylate], the midpoint of the response, the EC50, lay at 0.024 µM and the “Qpatch Emax” value came out at 1.9.

Take `COC(=O)C1=C(CF)NC2=C(C(=O)OC2)[C@H]1c1cccc(F)c1C(F)F` (single isomer, unassigned) [Example 15]: the EC50 is 0.29 µM and the “Qpatch Emax” value is on record as 1.3.

Regarding `COC(=O)C1=C(CF)NC2=C(C(=O)OC2)[C@H]1c1cc(F)cc(F)c1C(F)F` (single isomer, unassigned) [Example 18], a half-maximal response (EC50) required 0.21 µM and the “Qpatch Emax” value is given as 1.8.

For `COC(=O)C1=C(CF)NC2=C(C(=O)OC2)[C@H]1c1cc(F)cc(F)c1[C@H]1CC1(F)F` (single isomer, unassigned) [Example 4, Methyl (R)-4-(2-((R or S)-2,2-difluorocyclopropyl)-3,5-difluorophenyl)-2-(fluoromethyl)-5-oxo-1,4,5,7-tetrahydrofuro[3,4-b]pyridine-3-carboxylate], a half-maximal effect (EC50) was put at 0.02 µM and the “Qpatch Emax” value is reported as 1.9.

Turning to `COC(=O)C1=C(CF)NC2=C(C(=O)OC2)[C@H]1c1cc(F)cc(F)c1[C@H](C)F` (single isomer, unassigned) [Example 5, methyl (R)-4-(3,5-difluoro-2-((R or S)-1-fluoroethyl)phenyl)-2-(fluoromethyl)-5-oxo-1,4,5,7-tetrahydrofuro[3,4-b]pyridine-3-carboxylate], the concentration for a half-maximal effect (EC50) was 0.02 µM and the “Qpatch Emax” value turned out to be 1.9.

Take `COC(=O)C1=C(CF)NC2=C(C(=O)OC2)[C@H]1c1cc(F)cc(F)c1C1CC1` (single isomer, unassigned) [Example 13]: it took 0.02 µM to reach a half-maximal effect (EC50) and the “Qpatch Emax” value was 1.6*.

As to `COC(=O)C1=C(CF)NC2=C(C(=O)OC2)[C@H]1c1cc(F)cc(F)c1[C@H]1CC1(F)F` (single isomer, unassigned) [Example 3, Methyl (R)-4-(2-((R or S)-2,2-difluorocyclopropyl)-3,5-difluorophenyl)-2-(fluoromethyl)-5-oxo-1,4,5,7-tetrahydrofuro[3,4-b]pyridine-3-carboxylate], the EC50 amounted to 0.05 µM and the “Qpatch Emax” value came to 1.6.
